In patent US9796673B2 (TEVA PHARMACEUTICALS INTERNATIONAL GMBH, priority 2014, dated 2017):
Structures can show the parent of a compound that is named as a salt.

Key:
[1] = acid; cited from earlier work
[2] = Dynamic vapor sorption (DVS) hygroscopicity; assay type: physicochemical; details: for Hygroscopicity 40% RH: Table 3, 40% RH; for Hygroscopicity 75% RH: Table 3, 75% RH; for Hygroscopicity 90% RH: Table 3, 90% RH
Method: DVS—Measurement of Dynamic Vapor Sorption: DVS experiments have been carried out using the DVS-HT instrument (Surface Measurement Systems, London, UK). This instrument measures the uptake and loss of vapor gravimetrically using a recording ultra-microbalance with a mass resolution of ±0.1 μg. The vapor partial pressure (±1.0%) around the sample is controlled by mixing saturated and dry carrier gas streams using electronic mass flow controllers. The desired temperature is maintained at ±0.1° C. […] The sample was loaded and unloaded at 40% RH and 25° C. (typical room conditions). A moisture sorption isotherm was performed as outlined below (2 scans giving 1 complete cycle). The software uses a least squares minimization procedure together with a model of the mass relaxation, to predict an asymptotic value. The measured mass equilibration value must be within 2% of that predicted by the software before proceeding to the next % RH value. The minimum equilibration time was set to 1 hour and the maximum to 4 hours.

[3] = for pH: pH column of water solubility table (Table 2)
Method: Estimation of Water Solubility: A kinetic solubility experiment was performed. Powder samples were placed in glass vials and shaken for 20 minutes in water. […] The samples were then centrifuged to insure that no solids remained. The concentration of pridopidine in the supernatant was measured by HPLC and calculated based on a standard curve. […] Excess pridopidine was suspended in the solutions in glass vials and shaken for 72 hours at 25° C. The samples were then centrifuged and the pH of the supernatant was measured. The concentration of pridopdine in the supernatant was measured by HPLC and calculated based on a standard curve.

[4] = 4 week, 40° C. and 75% RH
[5] = WO 01/46145 salt; cited from earlier work

O=S(=O)(O)c1ccccc1 [Benzene sulfonic acid]
pKa1 [1]: 0.70

pridopidine L-malate
Hygroscopicity 40% RH [2]: 0.1%
Hygroscopicity 75% RH [2]: 0.2%
Hygroscopicity 90% RH [2]: 17.2%
Water solubility, Conc. ([3]; kinetic, in water, shaken 20 minutes): 76 mg/mL
pH [3]: 3.9
chemical and physical stability [4]: acceptable

pridopidine tosylate
XRPD pattern before and after the DVS test [2]: no change in XRPD pattern
DVS weight gain ([2]; 40% RH): 0.02%
DVS weight gain ([2]; 70% RH): 0.1%
DVS weight gain ([2]; 90% RH): 0.2%
Hygroscopicity 40% RH [2]: 0.02%
Hygroscopicity 75% RH [2]: 0.1%
Hygroscopicity 90% RH [2]: 0.2%

Br.CCCN1CCC(c2cccc(S(C)(=O)=O)c2)CC1 [HBr, reference compound]
Hygroscopicity 40% RH [2]: 0.04%
Hygroscopicity 75% RH [2]: 0.08%
Hygroscopicity 90% RH [2]: 0.12%

O=C(O)CO [Glycolic acid]
pKa1 [1]: 3.28

CCCN1CCC(c2cccc(S(C)(=O)=O)c2)CC1.CCCN1CCC(c2cccc(S(C)(=O)=O)c2)CC1.O=C(O)CCC(=O)O [Succinate (hemi), pridopidine succinate (hemi)]
Deliquescence during the DVS test [2]: deliquesced
DVS weight gain ([2]; 40% RH): 3%
DVS weight gain ([2]; 70% RH): 4%
DVS weight gain ([2]; 90% RH): 37%
Hygroscopicity 40% RH [2]: 3%
Hygroscopicity 75% RH [2]: 40%
Hygroscopicity 90% RH [2]: 70%

O=S(=O)(O)c1ccc2ccccc2c1 [Naphthalene 2-sulfonic acid]
pKa1 [1]: 0.17

CCCN1CCC(c2cccc(S(C)(=O)=O)c2)CC1 [Hydrochloride, pridopidine hydrochloride, reference compound]
Hygroscopicity 40% RH [2]: 0.1%
Hygroscopicity 75% RH [2]: 0.45%
Hygroscopicity 90% RH [2]: 7.3%
pH [3]: 6.0
relative humidities at which non-hygroscopic [5]: below 86%
relative humidity in excess of which deliquescent [5]: > 86%
